# Measured values published in US20260027116A1, “Methods of Treating Chronic Graft-Versus-Host Disease Following Allogeneic Hematopoietic Stem Cell Transplantation” (Kadmon Corporation, LLC, priority 2022, published 2026).
# Columns and labels:
# BCRP = biological target: T1, BCRP (Homo sapiens, UniProt Q9UNQ0); experiment: transporter inhibition in vitro; assay type: in vitro ADME; settings: at clinically relevant concentrations
# T1 sequence (Q9UNQ0 1-655): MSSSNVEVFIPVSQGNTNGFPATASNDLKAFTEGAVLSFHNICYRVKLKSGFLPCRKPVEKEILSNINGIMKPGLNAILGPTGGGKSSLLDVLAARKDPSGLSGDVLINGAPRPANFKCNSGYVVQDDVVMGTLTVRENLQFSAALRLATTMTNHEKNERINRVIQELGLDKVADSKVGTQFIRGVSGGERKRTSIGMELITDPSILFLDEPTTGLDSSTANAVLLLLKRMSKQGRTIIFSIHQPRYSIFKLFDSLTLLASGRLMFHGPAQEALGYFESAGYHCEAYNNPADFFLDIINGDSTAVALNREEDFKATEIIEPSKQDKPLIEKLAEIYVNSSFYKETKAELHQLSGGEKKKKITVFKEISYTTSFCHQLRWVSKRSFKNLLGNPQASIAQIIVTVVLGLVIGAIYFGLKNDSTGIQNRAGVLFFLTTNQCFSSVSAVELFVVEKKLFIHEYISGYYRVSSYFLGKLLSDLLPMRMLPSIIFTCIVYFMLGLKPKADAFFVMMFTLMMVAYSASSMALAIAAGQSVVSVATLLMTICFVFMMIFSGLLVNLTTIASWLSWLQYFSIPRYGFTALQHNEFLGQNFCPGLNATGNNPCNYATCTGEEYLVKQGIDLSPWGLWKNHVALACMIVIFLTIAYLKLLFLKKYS
# P-gp = P-gp (Homo sapiens, UniProt P08183); experiment: transporter substrate in vitro; assay type: in vitro ADME
# Sequence of P-gp (P08183 whole entry): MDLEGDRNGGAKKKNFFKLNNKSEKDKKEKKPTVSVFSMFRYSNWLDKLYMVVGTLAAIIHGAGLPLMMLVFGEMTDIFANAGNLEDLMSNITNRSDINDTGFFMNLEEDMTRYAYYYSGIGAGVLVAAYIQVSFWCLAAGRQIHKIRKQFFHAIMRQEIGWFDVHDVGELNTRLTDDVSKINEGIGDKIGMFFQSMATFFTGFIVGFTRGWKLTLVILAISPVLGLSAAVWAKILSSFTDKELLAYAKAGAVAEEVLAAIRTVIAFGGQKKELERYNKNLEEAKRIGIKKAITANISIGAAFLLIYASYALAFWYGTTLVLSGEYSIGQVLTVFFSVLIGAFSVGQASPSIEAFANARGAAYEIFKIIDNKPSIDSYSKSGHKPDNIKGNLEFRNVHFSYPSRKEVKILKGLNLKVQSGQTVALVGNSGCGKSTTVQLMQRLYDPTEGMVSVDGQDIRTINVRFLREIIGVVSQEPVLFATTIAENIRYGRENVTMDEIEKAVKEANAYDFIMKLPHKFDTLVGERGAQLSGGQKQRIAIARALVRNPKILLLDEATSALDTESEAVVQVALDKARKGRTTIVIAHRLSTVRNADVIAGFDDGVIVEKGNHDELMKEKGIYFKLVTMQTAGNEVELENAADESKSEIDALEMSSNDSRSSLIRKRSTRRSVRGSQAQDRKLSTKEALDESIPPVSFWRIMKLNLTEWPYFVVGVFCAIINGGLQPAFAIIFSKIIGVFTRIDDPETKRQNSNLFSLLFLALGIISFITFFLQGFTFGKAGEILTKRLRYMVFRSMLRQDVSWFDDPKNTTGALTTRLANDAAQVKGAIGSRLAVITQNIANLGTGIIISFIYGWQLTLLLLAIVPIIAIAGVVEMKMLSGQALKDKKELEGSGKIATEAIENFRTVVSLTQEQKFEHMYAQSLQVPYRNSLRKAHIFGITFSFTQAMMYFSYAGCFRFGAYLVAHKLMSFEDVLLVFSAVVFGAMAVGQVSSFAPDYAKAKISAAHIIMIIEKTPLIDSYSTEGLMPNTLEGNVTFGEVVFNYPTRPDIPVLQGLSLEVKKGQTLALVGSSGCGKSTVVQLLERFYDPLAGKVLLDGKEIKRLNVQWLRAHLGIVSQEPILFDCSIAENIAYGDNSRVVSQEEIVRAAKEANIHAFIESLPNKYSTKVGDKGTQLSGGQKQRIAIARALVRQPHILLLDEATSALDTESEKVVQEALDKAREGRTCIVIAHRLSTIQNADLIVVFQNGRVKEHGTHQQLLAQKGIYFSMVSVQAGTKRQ
# lung function = experiment: Example 1: percent predicted HGB corrected DLco change from baseline; assay type: in vivo, human; settings: mean (SD)
# Excerpt: Change From Baseline in Percent Predicted Hemoglobin (HGB) Corrected Diffusing Capacity of Lung for Carbon Monoxide (DLco) at Each Specified Time Points. DLco is a measurement of the ability of the lungs to transfer gases from the air to the blood. Change from baseline in diffusing capacity of the lung for carbon monoxide (percent predicted hemoglobin level corrected) was reported for this measure. Baseline value was defined as valid and last non-missing value obtained within 28 days prior to participant receiving first study medication. EOT visit was performed within 3 days after the participant's last dose of study drug. […] Analysis was performed on mITT population. Here, ‘number analyzed’=participants with available data for each specified category. Here, ‘O’ in the number analyzed field signifies that none of the participants were available for the analysis at the specified time points.
smiles,measurement,setting,value
"CC(C)NC(=O)COc1cccc(-c2nc(Nc3ccc4[nH]ncc4c3)c3ccccc3n2)c1 [Belumosudil, 2-{3-[4-(1H-indazol-5-ylamino)-2-quinazolinyl]phenoxy}-N-(propan-2-yl) acetamide]",inhibition of BCRP,BCRP,inhibits
same,P-gp substrate,P-gp,substrate of P-gp
same,Change From Baseline in Percent Predicted Hemoglobin (HGB) Corrected Diffusing Capacity of Lung for Carbon Monoxide (DLco),"lung function; Cohort 1: 200 mg QD, Cycle 3, Day 1",4.545 (22.991) Percent Predicted HGB Corrected DLco
same,Change From Baseline in Percent Predicted Hemoglobin (HGB) Corrected Diffusing Capacity of Lung for Carbon Monoxide (DLco),"lung function; Cohort 1: 200 mg QD, Cycle 5, Day 1",4.635 (23.989) Percent Predicted HGB Corrected DLco
same,Change From Baseline in Percent Predicted Hemoglobin (HGB) Corrected Diffusing Capacity of Lung for Carbon Monoxide (DLco),"lung function; Cohort 1: 200 mg QD, Cycle 7, Day 1",1.521 (19.836) Percent Predicted HGB Corrected DLco
same,Change From Baseline in Percent Predicted Hemoglobin (HGB) Corrected Diffusing Capacity of Lung for Carbon Monoxide (DLco),"lung function; Cohort 1: 200 mg QD, Cycle 9, Day 1",−4.514 (7.401) Percent Predicted HGB Corrected DLco
same,Change From Baseline in Percent Predicted Hemoglobin (HGB) Corrected Diffusing Capacity of Lung for Carbon Monoxide (DLco),"lung function; Cohort 1: 200 mg QD, Cycle 11, Day 1",−0.625 (7.262) Percent Predicted HGB Corrected DLco
same,Change From Baseline in Percent Predicted Hemoglobin (HGB) Corrected Diffusing Capacity of Lung for Carbon Monoxide (DLco),"lung function; Cohort 1: 200 mg QD, Cycle 12, Day 1",0.531 (—) Percent Predicted HGB Corrected DLco
same,Change From Baseline in Percent Predicted Hemoglobin (HGB) Corrected Diffusing Capacity of Lung for Carbon Monoxide (DLco),"lung function; Cohort 1: 200 mg QD, Cycle 13, Day 1",−5.548 (12.175) Percent Predicted HGB Corrected DLco
same,Change From Baseline in Percent Predicted Hemoglobin (HGB) Corrected Diffusing Capacity of Lung for Carbon Monoxide (DLco),"lung function; Cohort 1: 200 mg QD, Cycle 14, Day 1",12.916 (—) Percent Predicted HGB Corrected DLco
same,Change From Baseline in Percent Predicted Hemoglobin (HGB) Corrected Diffusing Capacity of Lung for Carbon Monoxide (DLco),"lung function; Cohort 1: 200 mg QD, Cycle 15, Day 1",0.228 (15.731) Percent Predicted HGB Corrected DLco
same,Change From Baseline in Percent Predicted Hemoglobin (HGB) Corrected Diffusing Capacity of Lung for Carbon Monoxide (DLco),"lung function; Cohort 1: 200 mg QD, Cycle 16, Day 1",48.465 (—) Percent Predicted HGB Corrected DLco
same,Change From Baseline in Percent Predicted Hemoglobin (HGB) Corrected Diffusing Capacity of Lung for Carbon Monoxide (DLco),"lung function; Cohort 1: 200 mg QD, Cycle 17, Day 1",−1.018 (9.226) Percent Predicted HGB Corrected DLco
same,Change From Baseline in Percent Predicted Hemoglobin (HGB) Corrected Diffusing Capacity of Lung for Carbon Monoxide (DLco),"lung function; Cohort 1: 200 mg QD, Cycle 19, Day 1",−2.293 (5.763) Percent Predicted HGB Corrected DLco
same,Change From Baseline in Percent Predicted Hemoglobin (HGB) Corrected Diffusing Capacity of Lung for Carbon Monoxide (DLco),"lung function; Cohort 1: 200 mg QD, Cycle 21, Day 1",−2.778 (8.187) Percent Predicted HGB Corrected DLco
same,Change From Baseline in Percent Predicted Hemoglobin (HGB) Corrected Diffusing Capacity of Lung for Carbon Monoxide (DLco),"lung function; Cohort 1: 200 mg QD, Cycle 23, Day 1",0.354 (1.844) Percent Predicted HGB Corrected DLco
same,Change From Baseline in Percent Predicted Hemoglobin (HGB) Corrected Diffusing Capacity of Lung for Carbon Monoxide (DLco),"lung function; Cohort 1: 200 mg QD, Cycle 24, Day 1",6.945 (—) Percent Predicted HGB Corrected DLco
same,Change From Baseline in Percent Predicted Hemoglobin (HGB) Corrected Diffusing Capacity of Lung for Carbon Monoxide (DLco),"lung function; Cohort 1: 200 mg QD, Cycle 25, Day 1",−4.461 (19.865) Percent Predicted HGB Corrected DLco
same,Change From Baseline in Percent Predicted Hemoglobin (HGB) Corrected Diffusing Capacity of Lung for Carbon Monoxide (DLco),"lung function; Cohort 1: 200 mg QD, Cycle 26, Day 1",4.715 (—) Percent Predicted HGB Corrected DLco
same,Change From Baseline in Percent Predicted Hemoglobin (HGB) Corrected Diffusing Capacity of Lung for Carbon Monoxide (DLco),"lung function; Cohort 1: 200 mg QD, Cycle 27, Day 1",−8.047 (24.788) Percent Predicted HGB Corrected DLco
same,Change From Baseline in Percent Predicted Hemoglobin (HGB) Corrected Diffusing Capacity of Lung for Carbon Monoxide (DLco),"lung function; Cohort 1: 200 mg QD, Cycle 29, Day 1",−6.701 (1.671) Percent Predicted HGB Corrected DLco
same,Change From Baseline in Percent Predicted Hemoglobin (HGB) Corrected Diffusing Capacity of Lung for Carbon Monoxide (DLco),"lung function; Cohort 1: 200 mg QD, Cycle 31, Day 1",2.343 (20.988) Percent Predicted HGB Corrected DLco
same,Change From Baseline in Percent Predicted Hemoglobin (HGB) Corrected Diffusing Capacity of Lung for Carbon Monoxide (DLco),"lung function; Cohort 1: 200 mg QD, Cycle 32, Day 1",5.586 (—) Percent Predicted HGB Corrected DLco
same,Change From Baseline in Percent Predicted Hemoglobin (HGB) Corrected Diffusing Capacity of Lung for Carbon Monoxide (DLco),"lung function; Cohort 1: 200 mg QD, Cycle 33, Day 1",9.901 (9.954) Percent Predicted HGB Corrected DLco
same,Change From Baseline in Percent Predicted Hemoglobin (HGB) Corrected Diffusing Capacity of Lung for Carbon Monoxide (DLco),"lung function; Cohort 1: 200 mg QD, Cycle 34, Day 1",4.863 (—) Percent Predicted HGB Corrected DLco
same,Change From Baseline in Percent Predicted Hemoglobin (HGB) Corrected Diffusing Capacity of Lung for Carbon Monoxide (DLco),"lung function; Cohort 1: 200 mg QD, Cycle 35, Day 1",13.867 (1.309) Percent Predicted HGB Corrected DLco
same,Change From Baseline in Percent Predicted Hemoglobin (HGB) Corrected Diffusing Capacity of Lung for Carbon Monoxide (DLco),"lung function; Cohort 1: 200 mg QD, Cycle 36, Day 1",4.166 (—) Percent Predicted HGB Corrected DLco
same,Change From Baseline in Percent Predicted Hemoglobin (HGB) Corrected Diffusing Capacity of Lung for Carbon Monoxide (DLco),"lung function; Cohort 1: 200 mg QD, Cycle 37, Day 1",9.306 (—) Percent Predicted HGB Corrected DLco
same,Change From Baseline in Percent Predicted Hemoglobin (HGB) Corrected Diffusing Capacity of Lung for Carbon Monoxide (DLco),"lung function; Cohort 1: 200 mg QD, Cycle 39, Day 1",14.754 (0.649) Percent Predicted HGB Corrected DLco
same,Change From Baseline in Percent Predicted Hemoglobin (HGB) Corrected Diffusing Capacity of Lung for Carbon Monoxide (DLco),"lung function; Cohort 1: 200 mg QD, Cycle 40, Day 1",5.586 (—) Percent Predicted HGB Corrected DLco
same,Change From Baseline in Percent Predicted Hemoglobin (HGB) Corrected Diffusing Capacity of Lung for Carbon Monoxide (DLco),"lung function; Cohort 1: 200 mg QD, Cycle 41, Day 1",22.884 (—) Percent Predicted HGB Corrected DLco
same,Change From Baseline in Percent Predicted Hemoglobin (HGB) Corrected Diffusing Capacity of Lung for Carbon Monoxide (DLco),"lung function; Cohort 1: 200 mg QD, Cycle 43, Day 1",15.213 (—) Percent Predicted HGB Corrected DLco
same,Change From Baseline in Percent Predicted Hemoglobin (HGB) Corrected Diffusing Capacity of Lung for Carbon Monoxide (DLco),"lung function; Cohort 1: 200 mg QD, Cycle 49, Day 1",−3.599 (—) Percent Predicted HGB Corrected DLco
same,Change From Baseline in Percent Predicted Hemoglobin (HGB) Corrected Diffusing Capacity of Lung for Carbon Monoxide (DLco),"lung function; Cohort 1: 200 mg QD, Cycle 51, Day 1",11.734 (—) Percent Predicted HGB Corrected DLco
same,Change From Baseline in Percent Predicted Hemoglobin (HGB) Corrected Diffusing Capacity of Lung for Carbon Monoxide (DLco),"lung function; Cohort 1: 200 mg QD, Cycle 53, Day 1",10.292 (—) Percent Predicted HGB Corrected DLco
same,Change From Baseline in Percent Predicted Hemoglobin (HGB) Corrected Diffusing Capacity of Lung for Carbon Monoxide (DLco),"lung function; Cohort 1: 200 mg QD, Cycle 55, Day 1",16.550 (—) Percent Predicted HGB Corrected DLco
same,Change From Baseline in Percent Predicted Hemoglobin (HGB) Corrected Diffusing Capacity of Lung for Carbon Monoxide (DLco),"lung function; Cohort 1: 200 mg QD, Cycle 61, Day 1",17.682 (—) Percent Predicted HGB Corrected DLco
same,Change From Baseline in Percent Predicted Hemoglobin (HGB) Corrected Diffusing Capacity of Lung for Carbon Monoxide (DLco),"lung function; Cohort 1: 200 mg QD, Cycle 62, Day 1",4.170 (—) Percent Predicted HGB Corrected DLco
same,Change From Baseline in Percent Predicted Hemoglobin (HGB) Corrected Diffusing Capacity of Lung for Carbon Monoxide (DLco),"lung function; Cohort 1: 200 mg QD, Cycle 63, Day 1",26.215 (—) Percent Predicted HGB Corrected DLco
same,Change From Baseline in Percent Predicted Hemoglobin (HGB) Corrected Diffusing Capacity of Lung for Carbon Monoxide (DLco),"lung function; Cohort 1: 200 mg QD, Cycle 67, Day 1",41.384 (—) Percent Predicted HGB Corrected DLco
same,Change From Baseline in Percent Predicted Hemoglobin (HGB) Corrected Diffusing Capacity of Lung for Carbon Monoxide (DLco),"lung function; Cohort 1: 200 mg QD, EOT",−1.962 (11.426) Percent Predicted HGB Corrected DLco
same,Change From Baseline in Percent Predicted Hemoglobin (HGB) Corrected Diffusing Capacity of Lung for Carbon Monoxide (DLco),"lung function; Cohort 2: 200 mg BID, Cycle 3, Day 1",−0.638 (7.059) Percent Predicted HGB Corrected DLco
same,Change From Baseline in Percent Predicted Hemoglobin (HGB) Corrected Diffusing Capacity of Lung for Carbon Monoxide (DLco),"lung function; Cohort 2: 200 mg BID, Cycle 5, Day 1",−4.462 (23.621) Percent Predicted HGB Corrected DLco
same,Change From Baseline in Percent Predicted Hemoglobin (HGB) Corrected Diffusing Capacity of Lung for Carbon Monoxide (DLco),"lung function; Cohort 2: 200 mg BID, Cycle 7, Day 1",6.184 (9.436) Percent Predicted HGB Corrected DLco
same,Change From Baseline in Percent Predicted Hemoglobin (HGB) Corrected Diffusing Capacity of Lung for Carbon Monoxide (DLco),"lung function; Cohort 2: 200 mg BID, Cycle 8, Day 1",3.554 (—) Percent Predicted HGB Corrected DLco
same,Change From Baseline in Percent Predicted Hemoglobin (HGB) Corrected Diffusing Capacity of Lung for Carbon Monoxide (DLco),"lung function; Cohort 2: 200 mg BID, Cycle 9, Day 1",2.570 (8.902) Percent Predicted HGB Corrected DLco
same,Change From Baseline in Percent Predicted Hemoglobin (HGB) Corrected Diffusing Capacity of Lung for Carbon Monoxide (DLco),"lung function; Cohort 2: 200 mg BID, Cycle 10, Day 1",4.343 (3.144) Percent Predicted HGB Corrected DLco
same,Change From Baseline in Percent Predicted Hemoglobin (HGB) Corrected Diffusing Capacity of Lung for Carbon Monoxide (DLco),"lung function; Cohort 2: 200 mg BID, Cycle 11, Day 1",6.582 (10.695) Percent Predicted HGB Corrected DLco
same,Change From Baseline in Percent Predicted Hemoglobin (HGB) Corrected Diffusing Capacity of Lung for Carbon Monoxide (DLco),"lung function; Cohort 2: 200 mg BID, Cycle 12, Day 1",4.076 (—) Percent Predicted HGB Corrected DLco
same,Change From Baseline in Percent Predicted Hemoglobin (HGB) Corrected Diffusing Capacity of Lung for Carbon Monoxide (DLco),"lung function; Cohort 2: 200 mg BID, Cycle 13, Day 1",1.882 (7.522) Percent Predicted HGB Corrected DLco
same,Change From Baseline in Percent Predicted Hemoglobin (HGB) Corrected Diffusing Capacity of Lung for Carbon Monoxide (DLco),"lung function; Cohort 2: 200 mg BID, Cycle 14, Day 1",0.358 (—) Percent Predicted HGB Corrected DLco
